Laboratory results reported in ChEMBL document CHEMBL1777811, “Actin depolymerizing effect of trisoxazole-containing macrolides” (2011).
Calls of active or inactive are those of the source. The calls are words filed in the database; no cut-off is given here.

Key:
Staphylococcus aureus [1] = experiment: Antibacterial activity against Staphylococcus aureus ATCC 6538p at 100 ug/ml after 24 hrs by twofold serial dilution method; format: functional, organism-based
Escherichia coli = experiment: Antibacterial activity against Escherichia coli ATCC 25922 at 100 ug/ml after 24 hrs by twofold serial dilution method; format: functional, organism-based
Trichophyton rubrum = experiment: Antifungal activity against Trichophyton rubrum IFO 9185 after 48 to72 hrs by twofold serial dilution method; format: functional
[2] = Induction of depolymerization of F-actin by fluorimetry
Proteus vulgaris = experiment: Antibacterial activity against Proteus vulgaris ATCC 3851 at 100 ug/ml after 24 hrs by twofold serial dilution method; format: functional, organism-based
Bacillus subtilis = experiment: Antibacterial activity against Bacillus subtilis ATCC 6633 at 100 ug/ml after 24 hrs by twofold serial dilution method; format: functional, organism-based
Staphylococcus aureus [3] = experiment: Antibacterial activity against Staphylococcus aureus IFO 12708 at 100 ug/ml after 24 hrs by twofold serial dilution method; format: functional, organism-based
Salmonella typhimurium = experiment: Antibacterial activity against Salmonella Typhimurium ATCC 14028 at 100 ug/ml after 24 hrs by twofold serial dilution method; format: functional, organism-based; settings: Salmonella enterica subsp. enterica serovar Typhimurium
[4] = Induction of depolymerization of F-actin at 1.82 uM by fluorimetry relative to control
[5] = tested on: Trichophyton mentagrophytes; experiment: Antifungal activity against Trichophyton mentagrophytes IFO 40996 after 48 to72 hrs by twofold serial dilution method; format: functional
Aspergillus fumigatus = experiment: Antifungal activity against Aspergillus fumigatus HIC 6094 after 48 to72 hrs by twofold serial dilution method; format: functional
Candida albicans = experiment: Antifungal activity against Candida albicans ATCC 10231 after 48 to72 hrs by twofold serial dilution method; format: functional
[6] = Induction of depolymerization of F-actin at 7.28 uM by fluorimetry relative to control
[7] = Induction of depolymerization of F-actin at 112 uM by fluorimetry relative to control
[8] = Induction of depolymerization of F-actin at 14 to 114 uM by fluorimetry relative to control
[9] = Induction of depolymerization of F-actin at 15 to 120 uM by fluorimetry relative to control

| Activity [9] | Structure (SMILES) | Activity (Staphylococcus aureus [1]) | Activity (Escherichia coli) | MIC (Trichophyton rubrum) | Activity [2] | Activity (Proteus vulgaris) | Activity (Bacillus subtilis) | Activity (Staphylococcus aureus [3]) | Activity (Salmonella typhimurium) | Activity [4] | MIC [5] | MIC (Aspergillus fumigatus) | MIC (Candida albicans) | Activity [6] | Activity [7] | Activity [8] |
| --- | --- | --- | --- | --- | --- | --- | --- | --- | --- | --- | --- | --- | --- | --- | --- | --- |
|  | COC(CC1OC(=O)CC(O)C/C=C\C(=O)C(C)C(OC)c2coc(n2)-c2coc(n2)-c2coc(n2)/C=C\CCC1C)C(C)CCC(=O)C(C)C(C/C=C/N(C)C=O)OC (stereo unspecified) | inactive | inactive | 7.27 µM | Dose-dependent effect | inactive | inactive | inactive | inactive | > 90% | 14.6 µM | 14.6 µM | 0.91 µM |  |  |  |
|  | C[C@@H]1[C@H](O)[C@@H](C)/C=C/C=C/C=C/C=C/C=C/C=C/C=C/[C@H](O[C@@H]2O[C@H](C)[C@@H](O)[C@H](N)[C@@H]2O)C[C@@H]2O[C@](O)(C[C@@H](O)C[C@@H](O)[C@H](O)CC[C@@H](O)C[C@@H](O)CC(=O)O[C@H]1C)C[C@H](O)[C@H]2C(=O)O [AMPHOTERICIN B] |  |  | 0.84 µM |  |  |  |  |  |  | 0.84 µM | 0.84 µM | 0.22 µM |  |  |  |
|  | COC(CC1OC(=O)CC(O)C/C=C/C(=O)C(C)C(OC)c2coc(n2)-c2coc(n2)-c2coc(n2)/C=C/CCC1C)C(C)CCC(=O)C(C)C(C/C=C/N(C)C=O)OC (stereo unspecified) [HALICHONDRAMIDE] | inactive | inactive | 0.48 µM | Dose-dependent effect | inactive | inactive | inactive | inactive |  | 0.91 µM | 0.45 µM | 0.23 µM | > 90% |  |  |
|  | COC(=O)c1coc(/C=C/CCC(C)C(CC(OC)C(C)CCC(=O)C(C)C(C/C=C/N(C)C=O)OC)OC(=O)CC(O)C/C=C/C(=O)C(C)C(OC)c2coc(C(N)=O)n2)n1 (stereo unspecified) [HALISHIGAMIDE D] | inactive | inactive | > 100 µg/mL |  | inactive | inactive | inactive | inactive |  | > 100 µg/mL | > 100 µg/mL | > 100 µg/mL |  | 40% |  |
|  | COC(CC1OC(=O)CC(O)CC(O)CC(=O)C(C)C(OC)c2coc(n2)-c2coc(n2)-c2coc(n2)/C=C/CCC1C)C(C)CCC(=O)C(C)C(C/C=C/N(C)C=O)OC (stereo unspecified) [JASPISAMIDE A] | inactive | inactive | > 100 µg/mL |  | inactive | inactive | inactive | inactive |  | > 100 µg/mL | > 100 µg/mL | > 100 µg/mL |  |  | inactive |
| inactive | COC(CC1OC(=O)CC(O)/C=C/CC(=O)C(C)C(OC)c2coc(n2)-c2coc(n2)-c2coc(n2)/C=C/CCC1C)C(C)CCC(=O)C(C)C(C/C=C/N(C)C=O)OC (stereo unspecified) [NEOHALICHONDRAMIDE] | inactive | inactive | > 100 µg/mL |  | inactive | inactive | inactive | inactive |  | > 100 µg/mL | > 100 µg/mL | > 100 µg/mL |  |  |  |
